Source: doi:10.1101/2025.01.30.635627v1 (biorxiv, 2025)

What was measured:
GAK = molecular target: T1, GAK (Homo sapiens, UniProt O14976); assay: Kinobead selectivity profiling; assay type: biochemical; conditions: read-out: K ^app; apparent value; off-target of ERK inhibitor
T1 sequence (O14976 2-1311): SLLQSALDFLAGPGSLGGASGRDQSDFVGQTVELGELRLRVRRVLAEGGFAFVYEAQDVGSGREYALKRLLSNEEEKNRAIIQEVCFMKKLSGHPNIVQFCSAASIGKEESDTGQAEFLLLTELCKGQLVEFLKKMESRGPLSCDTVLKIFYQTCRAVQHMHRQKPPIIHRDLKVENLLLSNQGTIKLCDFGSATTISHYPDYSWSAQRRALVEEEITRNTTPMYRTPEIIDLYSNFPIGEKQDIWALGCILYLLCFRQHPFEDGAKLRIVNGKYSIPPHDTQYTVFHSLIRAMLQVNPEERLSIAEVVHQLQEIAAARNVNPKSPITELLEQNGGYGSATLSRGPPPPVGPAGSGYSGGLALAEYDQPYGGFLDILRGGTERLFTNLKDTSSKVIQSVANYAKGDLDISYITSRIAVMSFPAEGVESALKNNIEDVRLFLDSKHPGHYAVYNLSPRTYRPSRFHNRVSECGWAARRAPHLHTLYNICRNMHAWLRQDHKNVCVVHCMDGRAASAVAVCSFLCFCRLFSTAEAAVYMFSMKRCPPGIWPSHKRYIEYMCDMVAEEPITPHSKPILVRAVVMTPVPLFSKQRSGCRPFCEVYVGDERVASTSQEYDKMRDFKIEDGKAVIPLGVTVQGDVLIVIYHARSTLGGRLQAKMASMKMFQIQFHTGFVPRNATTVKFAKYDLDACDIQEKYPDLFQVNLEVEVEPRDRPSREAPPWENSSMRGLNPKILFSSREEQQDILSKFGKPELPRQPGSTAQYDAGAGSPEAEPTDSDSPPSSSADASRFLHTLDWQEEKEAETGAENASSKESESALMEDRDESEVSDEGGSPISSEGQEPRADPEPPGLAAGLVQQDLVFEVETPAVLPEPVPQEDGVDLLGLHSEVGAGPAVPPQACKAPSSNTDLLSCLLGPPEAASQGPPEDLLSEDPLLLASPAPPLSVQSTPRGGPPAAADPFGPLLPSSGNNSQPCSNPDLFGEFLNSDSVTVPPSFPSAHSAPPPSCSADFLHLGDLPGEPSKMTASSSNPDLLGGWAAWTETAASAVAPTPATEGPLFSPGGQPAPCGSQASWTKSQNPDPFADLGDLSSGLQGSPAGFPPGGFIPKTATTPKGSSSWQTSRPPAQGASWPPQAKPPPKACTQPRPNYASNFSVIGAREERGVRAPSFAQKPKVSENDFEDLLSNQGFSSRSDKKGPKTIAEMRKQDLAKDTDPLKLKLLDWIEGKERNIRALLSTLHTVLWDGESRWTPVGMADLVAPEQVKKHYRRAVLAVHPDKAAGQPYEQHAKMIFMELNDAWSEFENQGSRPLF

AAK1 = AAK1 (Homo sapiens, UniProt Q2M2I8); assay: Kinobead selectivity profiling; assay type: biochemical; conditions: read-out: K ^app; apparent value; off-target of ERK inhibitor
EEF1A2 = molecular target: T2, EEF1A2 (Homo sapiens, UniProt Q05639); assay: decryptC competitive reactive cysteine profiling in intact cells, LC-MS/MS; assay type: cell-based; conditions: covalent; C31; […] h incubation; range over MiaPaCa-2, NCI-H23 and ASPC1 cells
T2 sequence (Q05639 2-463): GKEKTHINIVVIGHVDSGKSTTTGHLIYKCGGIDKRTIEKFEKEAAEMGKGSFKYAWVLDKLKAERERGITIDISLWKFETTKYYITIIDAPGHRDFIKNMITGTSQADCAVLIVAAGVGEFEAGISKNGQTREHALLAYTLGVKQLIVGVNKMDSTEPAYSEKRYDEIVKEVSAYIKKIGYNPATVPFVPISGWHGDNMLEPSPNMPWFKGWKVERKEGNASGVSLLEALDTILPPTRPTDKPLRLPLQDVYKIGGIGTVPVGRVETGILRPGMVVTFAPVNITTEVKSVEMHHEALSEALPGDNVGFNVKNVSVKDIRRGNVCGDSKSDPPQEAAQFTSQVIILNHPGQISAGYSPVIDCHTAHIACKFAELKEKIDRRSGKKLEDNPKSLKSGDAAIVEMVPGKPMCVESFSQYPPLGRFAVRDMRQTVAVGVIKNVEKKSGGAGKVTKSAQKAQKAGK

Chain of AAK1 (Q2M2I8 whole entry): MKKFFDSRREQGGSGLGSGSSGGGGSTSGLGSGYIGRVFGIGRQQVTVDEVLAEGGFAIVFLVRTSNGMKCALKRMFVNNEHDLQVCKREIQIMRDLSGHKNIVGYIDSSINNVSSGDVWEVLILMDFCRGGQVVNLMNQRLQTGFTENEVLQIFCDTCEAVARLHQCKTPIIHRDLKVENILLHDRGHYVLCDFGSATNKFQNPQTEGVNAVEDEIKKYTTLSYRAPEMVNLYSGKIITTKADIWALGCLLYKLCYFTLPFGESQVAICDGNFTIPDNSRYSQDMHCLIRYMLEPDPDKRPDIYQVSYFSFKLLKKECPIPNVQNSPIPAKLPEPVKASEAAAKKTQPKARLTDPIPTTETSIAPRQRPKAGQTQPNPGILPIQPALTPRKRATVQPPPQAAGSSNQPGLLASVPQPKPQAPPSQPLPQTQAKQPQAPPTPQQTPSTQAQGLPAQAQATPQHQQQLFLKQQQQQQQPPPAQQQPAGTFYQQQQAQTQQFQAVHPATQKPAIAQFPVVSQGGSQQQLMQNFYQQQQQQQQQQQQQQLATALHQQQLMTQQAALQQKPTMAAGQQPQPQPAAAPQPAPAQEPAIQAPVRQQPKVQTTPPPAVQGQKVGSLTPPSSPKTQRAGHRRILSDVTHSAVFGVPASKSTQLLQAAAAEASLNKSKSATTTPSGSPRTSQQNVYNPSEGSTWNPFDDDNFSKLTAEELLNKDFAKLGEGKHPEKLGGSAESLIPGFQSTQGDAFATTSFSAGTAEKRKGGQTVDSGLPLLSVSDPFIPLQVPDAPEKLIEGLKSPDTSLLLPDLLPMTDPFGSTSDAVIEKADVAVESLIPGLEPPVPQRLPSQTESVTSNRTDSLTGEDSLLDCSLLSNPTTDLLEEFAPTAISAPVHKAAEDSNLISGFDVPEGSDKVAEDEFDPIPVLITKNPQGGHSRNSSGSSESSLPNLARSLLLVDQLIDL

SMILES	Kd (GAK)	Kd (AAK1)	EC50 (EEF1A2)
Cn1nccc1Nc1nccc(-c2cc3c(s2)C(C)(C)N(CCN2CCOCC2)C3=O)n1 [Temuterkib]	155 nM	11 nM	–
C=C(F)C(=O)N1CCN(c2nc(OC[C@@H]3CCCN3C)nc3c2CCN(c2cccc4cccc(Cl)c24)C3)C[C@@H]1CC#N [Adagrasib]	–	–	1000 to 3000 nM
